Measurements reported in patent publication US20080317728A1, “Lowering Uric Acid to Prevent or Accelerate Recovery of Acute Renal Failure” (UNIVERSITY OF FLORIDA RESEARCH FOUNDATION, INC., priority 2004, published 2008).
Values joined by “and” are separate entries in the source; they are usually repeats but may differ in a detail not shown here. Equal values may be shown once.

Assays:
[1] = system: Male Sprague-Dawley rats; test: Hyperuricemia and serum nitrites/nitrates (NOx) in rats, Example 2; type: in vivo; conditions: for serum uric acid: OA 750 mg/kg/day gavage, AP 150 mg/L drinking water; for Serum nitrites and nitrates (NOx): chemiluminescence
Procedure: Male Sprague-Dawley rats were housed in standard conditions and fed normal diets. We induced hyperuricemia with an uricase inhibitor, oxonic acid (OA; 750 mg/kg/day), by gavage, with control rats receiving vehicle. Allopurinol (AP) was used to block hyperuricemia by placing AP in the drinking water (150 mg/L). Rats were divided into four groups: (1) Control, (2) AP only, (3) OA only, and (4) OA+AP. Systolic blood pressure was measured using a tail-cuff sphygmomanometer. The amount of drinking water consumed and changes in body weight were noted. Rats were sacrificed at one and seven days. Serum was analyzed for uric acid concentration and nitrites/nitrates (NOx) by chemiluminescence method. (Prabhakar SS: Inhibition of mesangial iNOS by reduced extracellular pH is associated with uncoupling of NADPH oxidation. Kidney Int 61:2015-2024, 2002). Statistical analysis between subgroups was performed using ANOVA.

[2] = system: remnant kidney rats (5/6 nephrectomy); test: Hyperuricemia in remnant kidney rats: serum uric acid, systolic blood pressure, proteinuria, body weight; type: in vivo, Sprague-Dawley rats
Procedure: (§1) Experimental Design: All animal procedures were approved by the Animal Care Committee. Male 300-350 g Sprague-Dawley rats were used in all experiments.
(§2) Hyperuricemia in remnant kidney rats on normal sodium diet: Under light anesthesia with ether, 5/6 nephrectomy was performed by removal of the right kidney and selective ligation of 2-3 branches of left renal artery. To induce hyperuricemia rats were given OA (750 mg/kg) by gastric gavage starting the day after the renal ablation. To prevent hyperuricemia AP was administered in the drinking water (150 mg/L). The following groups were studied: 5/6 Nx (n=10); 5/6 Nx+OA (n=12) and 5/6 Nx+OA+AP (n=13). Systolic blood pressure, proteinuria and serum uric acid were measured at baseline and after 25-28 days of follow-up. Micropuncture studies were performed at 4 weeks.
(§3) Evaluation: In all studies, systolic blood pressure (SBP) was measured by tail cuff sphyngomanometer using an automated system (Narco Biosystems, Houston Tex., USA). All animals were preconditioned for blood pressure measurements 1 week before each experiment. Proteinuria was determined by turbidimetry by the method of trichloroacetic acid (Henry R J, Sobel Ch, Segalove M: Turbidimetric determination of proteins with sulfosalicylic and trichloroacetic acids. Proc Soc Exp Biol Med 92:748-751, 1956). Serum uric acid was measured by colorimetric phosphotungstic acid method using a commercial kit (Wiener Lab, Argentina).
(§4) Statistical analysis. Values are expressed as mean±standard error (SE). Differences between groups were evaluated by ANOVA with appropriate correction for multiple comparisons (Bonferroni). The relation between variables was assessed by correlation analysis.

[3] = system: normal rats on normal sodium diet; test: Micropuncture (glomerular hemodynamics) in normal rats on normal sodium diet; type: in vivo, Sprague-Dawley rats
Procedure: as §1
(§5) Hyperuricemia in normal rats on normal sodium diet: To produce hyperuricemia, rats were administered oxonic acid (OA) (Sigma, St Louis Mo., USA) 750 mg/kg body weight by gastric gavage. To prevent the rise of serum uric acid induced by OA, allopurinol (AP) (Sigma, St Louis Mo., USA) was administered in drinking water (150 mg/L). We studied the following groups: Control (n=8); OA (n=7) and OA plus allopurinol (n=9). Systolic blood pressure and serum uric acid were measured at baseline and after 30-33 days of follow-up. Micropuncture studies were performed at 5 weeks.
(§6) Micropuncture: Animals were anesthetized with pentobarbital sodium (30 mg/kg ip) and placed on a thermoregulated table to maintain body temperature at 37° C. Trachea, jugular veins, femoral arteries, and the left ureter were catheterized with polyethylene tubing (PE-240, PE-50, and PE-10). The left kidney was exposed, placed in a Lucite holder, sealed with agar, and covered with Ringer's solution. Mean arterial pressure (MAP) was monitored with a pressure transducer (Model p23 db; Gould, San Juan, PR) and recorded on a polygraph (Grass Instruments, Quincy, Mass., USA). Blood samples were taken periodically and replaced with blood from a donor rat. Rats were maintained under euvolemic conditions by infusion of 10 ml/kg of body weight of isotonic rat plasma during surgery, followed by an infusion of 25% polyfructosan, at 2.2 ml/h (Inutest, Laevosan-Gesellschaft, Linz, Austria). After 60 min, five to six 3-min collection samples of proximal tubular fluid were obtained to determine flow rate and polyfructosan concentration. Intratubular pressure under free-flow and stop-flow conditions and peritubular capillary pressure were measured in other proximal tubules with a servo-null device (Servo Nulling Pressure System; Instrumentation for Physiology and Medicine, San Diego, Calif., USA). Polyfructosan was measured in plasma samples. Glomerular colloid osmotic pressure was estimated in protein from blood of the femoral artery (Ca) and surface efferent arterioles (Ce). Polyfructosan concentrations were determined by the technique of Davidson and Sackner (Davidson W D, Sackner Mass.: Simplification of the Antrhone Method for the Determination of Inulin in Clearance Studies. J. Lab Clin. Med. 62:351-356, 1963). The volume of fluid collected from individual proximal tubules was estimated from the length of the fluid column in a constant bore capillary tube of known internal diameter. Concentration of tubular polyfructosan was measured by the method of Vurek and Pegram (Vurek G G, Pegram S E: Fluorometric method for the determination of nanogram quantities of inulin. Ann. Biochem 16:409-419, 1966). Protein concentration in afferent and efferent samples was determined according to the method of Viets et al. (Viets J W, Deen W M, Troy J L, Brenner B M: Determination of serum protein concentration in nanoliter blood samples using fluorescamine or 9-phthalaldehyde. Anal. Biochem 88:513-521, 1978). MAP, GFR, single-nephron GFR (SNGFR), glomerular capillary hydrostatic pressure (Pgc), single-nephron plasma flow (QA), afferent (RA) and efferent (RE) resistances, and Kf, were calculated according to equations given elsewhere (Baylis C, Deen W M, Myers B D, Brenner B M: Effects of some vasodilator drugs on transcapillary fluid exchange in renal cortex. Am. J. Physiol 230:1148-1158, 1976).
as §4

[4] = system: remnant kidney rats (5/6 nephrectomy); test: Renal histology in remnant kidney rats; type: in vivo, Sprague-Dawley rats; conditions: mean±SE
Procedure: as §2
(§7) Renal Histology: After the micropuncture study kidneys and remnant kidneys were washed by perfusion with PBS and then fixed with 4% paraformaldehyde. Renal biopsies were embedded in paraffin. Four μm sections of fixed tissue were stained with periodic acid Schiff (PAS) reagent. Arteriolar morphology was assessed by indirect peroxidase immunostaining for alpha-smooth muscle actin (DAIO Corp. Carpinteria, Calif., USA). In addition in remnant kidney rats glomerulosclerosis and fibrosis was assessed with Masson's trichrome stain and tubulointerstitial lymphocytes were assessed by indirect immunoperoxidase immunostaining for anti-CD-5.
Quantification of morphology: Quantifications were performed blinded. Arteriolopathy of afferent arterioles was evaluated as previously described (Sanchez-Lozada L G, Tapia E, Avila-Casado C, Soto V, Franco M, Santamaria J, Nakagawa T, Rodriguez-Iturbe B, Johnson R J, Herrera-Acosta J: Mild hyperuricemia induces glomerular hypertension in normal rats. Am. J. Physiol Renal Physiol 283:F1105-F1110, 2002). In brief, only vessels adjacent to glomeruli were selected. For each arteriole, the outline of the vessel and its internal lumen (excluding the endothelium) was generated using computer analysis to calculate the total medial area (outline-inline), in 10 arterioles per biopsy. The media/lumen ratio was calculated by the outline/inline relationship.
Glomerulosclerosis was evaluated in Masson's trichrome stained sections. The degree of sclerosis was scored as follows: in each biopsy the numbers of glomeruli with segmental, mesangial and global sclerosis as well as normal glomerular tufts were assessed. The resulting index in each animal was expressed as the percent of sclerosed glomeruli.
Tubulointerstitial fibrosis analysis was performed by a pathologist unaware of the origin of each kidney section. Evaluation was performed using slides stained with Masson's trichrome. Five noncrossed fields ([…], enlarged ×40) per biopsy were analyzed, using light microscopy (Olympus B-51. Olympus American, Melville, N.Y.) and captured with a digital video camera (CoolSnap Pro, Media Cybernetics Silver Spring, Md.). Each picture was processed on a computer and analyzed using Image-Pro and Photoshop 7 (Adobe Systems, SanJose, Calif.). Using the capabilities of color recognition by this software, a blue color was selected for positive areas. After selection, these areas were quantified (pixel unit) using the histogram function of the software. For each field, the number of positive areas was expressed as a fraction of the tubulointerstitial area (positive areas divided by the overall field area). Finally, for each biopsy, the mean fractional amount of positive areas was obtained by averaging the values obtained from 5 fields examined. […]

[5] = system: normal rats on normal sodium diet; test: Hyperuricemia in normal rats on normal sodium diet: serum uric acid, systolic blood pressure, body weight; type: in vivo, Sprague-Dawley rats
Procedure: as §1, §5, §3, §4

[6] = system: normal rats on normal sodium diet; test: Renal histology, afferent arteriole morphology in normal rats; type: in vivo, Sprague-Dawley rats
Procedure: as §5, §7
Quantification of morphology: Quantifications were performed blinded. […] The media/lumen ratio was calculated by the outline/inline relationship.

[7] = system: remnant kidney rats (5/6 nephrectomy); test: Micropuncture (glomerular hemodynamics) in remnant kidney rats; type: in vivo, Sprague-Dawley rats; set-up: SNGFR lower than RK control group / glomerular plasma flow lower than RK control group / Kf lower than RK control group / afferent resistance higher compared to RK control / efferent resistance higher compared to RK control: concentration or dose not given beside the values
Procedure: as §1, §2, §6, §4

[8] = micropuncture at 5 weeks, mean±SE
[9] = micropuncture at 4 weeks, mean±SE

Structure (SMILES): O=C(O)c1nc(=O)[nH]c(=O)[nH]1 [OA, oxonic acid]
- reduction of serum NOx vs control ([1]; hyperuricemic rats at both 1 day and 7 days): 40-50%
- serum uric acid ([1]; rats, 1 day): 1.7 ± 0.7 mg/dL
- Serum nitrites and nitrates (NOx) ([1]; rats, 1 day): 15.6 ± 0.4 µmol/L
- serum uric acid ([1]; rats, 7 days): 1.8 ± 0.4 mg/dL
- Serum nitrites and nitrates (NOx) ([1]; rats, 7 days): 14.6 ± 1.1 µmol/L
- systolic blood pressure ([1]; rats, 7 days, tail cuff): 178±18 mm Hg
- Uprot (proteinuria) ([2]; 25-28 days, mean±SE): 246 ± 29 mg/day
- SUA (serum uric acid) ([2]; OA 750 mg/kg gavage, AP 150 mg/L drinking water, 25-28 days, mean±SE): 4.5 ± 0.4 mg/dL
- SBP (systolic blood pressure) ([2]; tail cuff, 25-28 days, mean±SE): 191 ± 10 mmHg
- additional rise of proteinuria ([2]; vs RK control): two fold
- further increase of SBP ([2]; vs RK control): 30 mmHg
- increase of serum uric acid ([2]; vs RK control): two fold
- afferent resistance higher ([3]; hyperuricemic vs control): 45%
- decrease of SNGFR ([3]; hyperuricemic vs control): 35%
- efferent resistance higher ([3]; hyperuricemic vs control): 64%
- GFR [3, 8]: 0.71 ± 0.1 mL/min
- KF (ultrafiltration coefficient) [3, 8]: 0.027 ± 0.002 nl/s/mmHg
- MAP (mean arterial pressure) [3, 8]: 131 ± 4 mmHg
- PGC (glomerular capillary hydrostatic pressure) [3, 8]: 56 ± 2 mmHg
- QA (single-nephron plasma flow) [3, 8]: 66.1 ± 7.2 nL/min
- RA (afferent resistance) [3, 8]: 4.82 ± 0.67 dyn/s/cm^−5
- RE (efferent resistance) [3, 8]: 2.83 ± 0.19 dyn/s/cm^−5
- SNGFR (single-nephron GFR) [3, 8]: 17.8 ± 2 nL/min
- Glomerulosclerosis ([4]; Masson's trichrome): 0.33 ± 0.07%
- TI Fibrosis ([4]; Masson's trichrome): 780.2 ± 55.0 arbitrary units
- TI CD5 + (tubulointerstitial infiltration of CD5 positive cells) ([4]; immunoperoxidase): 26.1 cells/mm^2 and 26.1 ± 2.99 cells/mm^2
- AA M/L (afferent arteriole media to lumen ratio) [4]: 6.4 ± 0.37
- AA M/L (afferent arteriole media to lumen ratio) ([4]; listed as Oxonic acid): 6.4
- SUA (serum uric acid) ([5]; normal salt diet, OA 750 mg/kg gavage, AP 150 mg/L drinking water, 30-33 days, mean±SE): 5.4 ± 0.2 mg/dL
- SBP (systolic blood pressure) ([5]; normal salt diet, tail cuff, 30-33 days, mean±SE): 134 ± 3 mmHg
- increment of serum uric acid ([5]; vs control): two-fold
- AA M/L (afferent arteriole media/lumen ratio) ([6]; after micropuncture, mean±SE): 5.1 ± 0.6
- Kf lower than RK control group [7]: 50%
- SNGFR lower than RK control group [7]: 40%
- afferent resistance higher compared to RK control [7]: 120%
- efferent resistance higher compared to RK control [7]: 80%
- glomerular plasma flow lower than RK control group [7]: 40%
- GFR [7, 9]: 0.4 ± 0.1 mL/min
- KF (ultrafiltration coefficient) [7, 9]: 0.02 nl/s/mmHg and 0.024 ± 0.003 nl/s/mmHg
- MAP (mean arterial pressure) [7, 9]: 184 ± 6 mmHg
- PGC (glomerular capillary pressure) [7, 9]: 62 mmHg and 62 ± 1 mmHg
- QA (glomerular plasma flow) [7, 9]: 147 nL/min and 146.5 ± 20.4 nL/min
- RA (afferent resistance) [7, 9]: 4.6 dyn/s/cm^−5 and 4.55 ± 0.66 dyn/s/cm^−5
- RE (efferent resistance) [7, 9]: 1.8 dyn/s/cm^−5 and 1.83 ± 022 dyn/s/cm^−5
- SNGFR (single-nephron GFR) [7, 9]: 40.6 nL/min and 40.7 ± 6.0 nL/min

Structure (SMILES): Oc1ncnc2[nH]ncc12 [AP, allopurinol]
- change in NOx concentration ([1]; rats treated with AP alone): did not show a significant change
- change in serum UA concentration ([1]; rats treated with AP alone): did not show a significant change
- serum uric acid ([1]; rats, 1 day): 1.52 ± 0.3 mg/dL
- Serum nitrites and nitrates (NOx) ([1]; rats, 1 day): 17.4 ± 0.8 µmol/L
- serum uric acid ([1]; rats, 7 days): 0.3 ± 0.2 mg/dL
- Serum nitrites and nitrates (NOx) ([1]; rats, 7 days): 25.0 ± 0.8 µmol/L
- effect on SBP ([2]; concomitant with oxonic acid): only a marginal effect
- effect on hyperuricemia ([2]; concomitant with oxonic acid): prevented
- effect on proteinuria ([2]; concomitant with oxonic acid): prevented
- effect on glomerular hemodynamic alterations of hyperuricemia ([3]; concomitant with oxonic acid): prevented these alterations
- AA M/L (afferent arteriole media to lumen ratio) [4]: 1.8
- effect on the hypertension induced by oxonic acid ([5]; concurrent with oxonic acid): prevented
- effect on the increase of serum uric acid induced by oxonic acid ([5]; concurrent with oxonic acid): prevented
- effect on thickening of afferent arterioles ([6]; with oxonic acid): prevented
- PGC, in words ([7]; AP with oxonic acid, in the presence of systemic hypertension): normal and significantly lower than RK hyperuricemic rats
- SNGFR (single-nephron GFR) [7, 9]: 53 nL/min
